This series in a line: in vitro. The following applies: human, hela cells.
Setting [1] is: % viability, bulk resorufin, single well.

The values below come from paper PMC12040169 (PLOS Biology, 2025).

As usually defined, the viability is a read-out of living cells in per cent, often relative to untreated cells.

`COc1cc(Cl)ccc1NC(=O)Oc1cccc2cnccc12` [CBK012882]: the viability at 28.5 h, 10 µM under setting [1] amounted to 79.9%.
Consider `CC(C)NCC(O)c1c2c(cc3c1CCC3)CCC2` (stereo not drawn) [CBK012972F], for which the viability at 28.5 h, 10 µM (% viability) worked out at 108%.
As for `CC(C)n1c(COc2ccc(OC(F)(F)F)cc2)n[nH]c1=S` [CBK012989], the viability at 28.5 h, 10 µM (% viability) stood at 92.9%.
With `Cn1ncc(Nc2ccccc2)c1C(=O)O` [CBK013004], the viability at 28.5 h, 10 µM (% viability) came out at 114%.
For the compound `CC(C)CC1(C(CCN2C(=O)c3ccccc3C2=O)C(=O)NO)CCN(Cc2cccc(F)c2)C1=O` (stereo not drawn) [CBK013032], the viability at 28.5 h, 10 µM (% viability) stood at 83.8%.
As to `O=C(NC1CCCCC1)NS(=O)(=O)c1ccc(CCNC(=O)c2cnc3ccccc3n2)cc1` [CBK013051], the viability at 28.5 h, 10 µM (% viability) was found to be 87.1%.
Turning to `CCCCCn1c(Cc2ccccc2)n[nH]c1=O` [CBK013059], the viability at 28.5 h, 10 µM (% viability) was 98.3%.
Same read-out and setting: as for `Clc1ccc2c(c1)CCC(NCC1COc3ccccc3O1)C2` (stereo not drawn) [CBK013077C], the figure is 97.5%.
Still for that read-out and setting: as for `COc1cccc(OC)c1OCCNC1CCc2cc(Cl)ccc2C1` (stereo not drawn) [CBK013079C], the figure is 88.9%; as for `C#CCNCc1ccc(O)cc1` [CBK013235C], 87.4%; as for `CC(C)(C)NCC(O)c1ccc(O)c2c1C1CCC2CC1` (stereo not drawn) [CBK013269C], 93.9%.
On the same count and under the same terms, then `CCCCCn1c(-c2ccccc2)n[nH]c1=O` [CBK013288], with 83.3%.
In the case of `O/N=C1\CC2(CCCCC2)c2ccccc21` [CBK013318], the viability at 28.5 h, 10 µM (% viability) turned out to be 83%.
For `c1ccc2c(c1)/C(=N/OCCN1CCCC1)CC21CCCCC1` [CBK013322], for the setting “% viability”, the viability at 28.5 h, 10 µM amounted to 110%.
The same measure, in the same setting: then `CCN(CC)CCO/N=C1\CC2(CCCCC2)c2ccccc21` [CBK013325], with 101%; and `CN(C)CCO/N=C1\CC2(CCCC2)c2ccc(Cl)cc21` [CBK013334], with 78.1%; and `OC(CCNC1CCCCC1)(c1ccccc1)c1ccccc1` [CBK013339], with 101%.
The same measure, in the same setting: as for `O=S(=O)(O)c1cccc2cccc(Nc3ccccc3)c12` [CBK013362G], the figure is 84.8%; as for `O=C(Nc1cccc(C(F)(F)F)c1)N1CCN(CCCCc2ccc(F)cc2)CC1` [CBK013363C], 90.4%; as for `CC(C)(C)OC(=O)NC1CCc2ccccc2N(Cc2ccccc2)C1=O` (stereo not drawn) [CBK013366], 97.1%.
For the compound `c1coc(COc2cncc(N3CCNCC3)n2)c1` [CBK013393], where the note is “% viability”, the viability at 28.5 h, 10 µM turned out to be 94.2%.
Consider `COc1ccc(Cl)cc1N1CCNCC1` [CBK013449C], for which the viability at 28.5 h, 10 µM under setting [1] was found to be 89.4%.
As to `O=c1c(N2CCNCC2)nccn1CCOc1cccc(Cl)c1Cl` [CBK013463], the viability at 28.5 h, 10 µM (% viability) amounted to 92.2%.
For `COc1cc(OC)c(C(C)=O)c(OCCOc2nccnc2N2CCNCC2)c1` [CBK013497T], the viability at 28.5 h, 10 µM (% viability) is 95.8%.
Same read-out and setting: as for `c1ccc(OCCNc2nccnc2N2CCNCC2)cc1` [CBK013527], the figure is 93.3%; as for `CN(CCOc1ccc(CC2SC(=O)NC2=O)cc1)c1ccccn1` (stereo not drawn) [CBK013537], 101%.
The same measure, in the same setting: then `COc1ccc(CNC(N)=O)cc1` [CBK013588], with 104%.
Still for that read-out and setting: then `CCn1c2ccccc2c2cc(C#N)c(=O)[nH]c21` [CBK013595], with 93.9%; and `O=C(CCN1CCCCC1)NCC1OCCc2ccccc21` (stereo not drawn) [CBK013619], with 97%; and `CC1CN(Cc2ccccc2)CCN1c1cnccn1` (stereo not drawn) [CBK013684], with 102%.
Take `CCOC(=O)C(NCCc1ccc(OC)c(OC)c1)(NC(=O)c1ccco1)C(F)(F)F` (stereo not drawn) [CBK013715]: where the note is “% viability”, the viability at 28.5 h, 10 µM stood at 123%.
For `O=C(O)CCSC1=CCS(=O)(=O)c2ccc(Cl)cc21` [CBK013721], the viability at 28.5 h, 10 µM (% viability) was found to be 114%.
On to `O=C(c1ccccc1)c1ccccc1-n1nccn1` [CBK013849], for which the viability at 28.5 h, 10 µM (% viability) came out at 99%.
As for `CC(C)NC1=NC(=O)C(CC(=O)Nc2ccccc2)S1` (stereo not drawn) [CBK013880], for the setting “% viability”, the viability at 28.5 h, 10 µM stood at 90.7%.
Same read-out and setting: as for `COc1ccc(C2(CNC(=O)C(O)COc3ccccc3)CCCC2)cc1OC` (stereo not drawn) [CBK014053], the figure is 88.5%; as for `N#Cc1cnn2c(C(F)(F)F)cc(C(F)(F)F)nc12` [CBK014064], 93.5%; as for `CCOC(=O)CC1SC(NS(=O)(=O)c2ccc(Br)cc2)=NC1=O` (stereo not drawn) [CBK014126], 93.5%.
`CC(C)(C)c1nc(NS(=O)(=O)c2ccc(Cl)cc2)sc1Br` [CBK014258]: the viability at 28.5 h, 10 µM (% viability) came out at 102%.
The same measure, in the same setting: as for `O=C(O)c1ccc(OCc2n[nH]c(=S)n2-c2ccc(Cl)cc2)cc1` [CBK014317], the figure is 102%.
The same measure, in the same setting: then `NC(=O)c1cccc(OCCOc2nccnc2N2CCNCC2)c1` [CBK014338G], with 114%; and `OCCOc1ccc(OCCOc2nccnc2N2CCNCC2)cc1` [CBK014349G], with 93.9%; and `COc1cc2c(cc1OC)C1(CCOCC1)CNC2CC(c1ccccc1)c1ccccc1` (stereo not drawn) [CBK014382], with 91.4%.
Still for that read-out and setting: then `c1ccc(-c2nc(N3CCOCC3)n3ccccc23)cc1` [CBK014407], with 89.2%.
For the compound `FC(F)(F)c1cccc(OCCOc2nccnc2N2CCNCC2)c1` [CBK014518G], the viability at 28.5 h, 10 µM (% viability) was found to be 105%.
For `CC(C)N(C)C(=O)Cc1csc(N)n1` [CBK014608], under “% viability”, the viability at 28.5 h, 10 µM came to 100%.
For `COc1cccc(CCN(Cc2ccc(S(=O)(=O)N3CCOC3=O)cc2)Cc2cccc(OCCO)c2)c1` [CBK014806], the viability at 28.5 h, 10 µM (% viability) is 98.5%.
On the same count and under the same terms, as for `COc1ccc(CN(Cc2ccc(OC)cc2)Cc2ccc(S(=O)(=O)N3CCOC3=O)cc2)cc1` [CBK014818], the figure is 110%.
Consider `COc1ccccc1CCNCc1ccc(Br)cc1` [CBK015036G], for which the viability at 28.5 h, 10 µM under setting [1] is 96.2%.
Take `CCn1c(C(C)Oc2ccc(Cl)cc2)n[nH]c1=S` (stereo not drawn) [CBK015099]: the viability at 28.5 h, 10 µM (% viability) was 108%.
As to `CCn1c(C(O)c2ccccc2)n[nH]c1=S` (stereo not drawn) [CBK015110], under “% viability”, the viability at 28.5 h, 10 µM was found to be 90.5%.
On the same count and under the same terms, as for `CCOC(=O)N[C@@H](CC1CCCCC1)C(=O)NCCc1ccc(S(N)(=O)=O)cc1` [CBK015131], the figure is 106%.
With `COc1ccccc1CCNCc1ccccc1Br` [CBK015149], the viability at 28.5 h, 10 µM under setting [1] was 87%.
As to `CCC(CN(C)C)C(=O)c1ccccc1` (stereo not drawn) [CBK015409C], the viability at 28.5 h, 10 µM (% viability) stood at 95.1%.
Take `OCC(O)CN1CCCC1` (stereo not drawn) [CBK015457]: the viability at 28.5 h, 10 µM (% viability) turned out to be 114%.
With `CN1CCN(Cc2n[nH]c(=S)n2-c2cccc(C#N)c2)CC1` [CBK015465], the viability at 28.5 h, 10 µM (% viability) was 112%.
Same read-out and setting: then `COc1ccc2c(c1)C(O)C(NCc1ccccc1)C2` (stereo not drawn) [CBK015469C], with 104%.
The same measure, in the same setting: then `O=C(O)c1cccc2cccc(-c3cccc4cccc(C(=O)O)c34)c12` [CBK015494], with 109%.
For `FC(F)(F)c1ccc2c(c1)N(CCCN1CCCC1)c1ccccc1S2` [CBK015520C], the viability at 28.5 h, 10 µM (% viability) was 88%.
Still for that read-out and setting: then `CNC(c1ccncc1)C(NC)c1ccncc1` (stereo not drawn) [CBK015546], with 95.9%; and `CC(=O)Nc1ncc(Cl)s1` [CBK015564], with 108%; and `O=[N+]([O-])c1cc(S(=O)(=O)Nc2cccc3ccccc23)ccc1N1CCNCC1` [CBK015584C], with 90%.
Take `CCOC(=O)Cc1nc2cc([N+](=O)[O-])ccc2oc1=O` [CBK015603]: the viability at 28.5 h, 10 µM (% viability) came out at 98%.
With `CNC(=O)Oc1cccc2cccnc12` [CBK015609], the viability at 28.5 h, 10 µM is 88.5%.
Regarding `C(=N\N=C\c1ccccn1)/c1ccccn1` [CBK015627], the viability at 28.5 h, 10 µM (% viability) stood at 89%.
Regarding `COc1cc(C(=O)CCN2CCCCC2)cc(OC)c1OC` [CBK015639C], the viability at 28.5 h, 10 µM (% viability) amounted to 107%.
Still for that read-out and setting: as for `S=C1NCC(COc2ccc(Cl)cc2)O1` (stereo not drawn) [CBK015647], the figure is 98.9%.
The same measure, in the same setting: as for `NS(=O)(=O)c1ccc(Cl)c(Cl)c1` [CBK015652], the figure is 118%; as for `Cn1c(=O)oc2ccccc2c1=O` [CBK015658], 100%; as for `COc1cc(C(=O)NC/C=N/O)cc(OC)c1OC` [CBK015662], 90%.
Turning to `Cc1nc(N)nc(N2CCN(C)CC2)n1` [CBK015681], the viability at 28.5 h, 10 µM (% viability) turned out to be 100%.
The same measure, in the same setting: then `O=c1[nH]c2cc(Cl)cc(Cl)c2o1` [CBK015711], with 90.6%; and `OCCN1CSC(=S)N(CCc2ccc(Cl)cc2)C1` [CBK015713], with 122%; and `O=C(O)c1cc2ccccc2[nH]1` [CBK015732], with 100%.
The same measure, in the same setting: as for `CC(C)n1c(=O)[nH]c2ccncc2c1=O` [CBK015763], the figure is 88.8%; as for `N#Cc1cnc(NCc2ccccc2)nc1N` [CBK015764], 90%.
Same read-out and setting: then `Cc1ccccc1Nc1n[nH]c(=S)s1` [CBK015808], with 111%.
For the compound `CC(=O)c1ccc(O)c2ncccc12` [CBK015821], the viability at 28.5 h, 10 µM (% viability) is 110%.
Still for that read-out and setting: as for `CC(=O)C(/N=N\c1ccc(S(=O)(=O)Nc2nccs2)cc1)C(=O)Nc1ccc(Cl)cc1` (stereo not drawn) [CBK015826], the figure is 86.8%.
Still for that read-out and setting: as for `OCC1CCCCC1NCCCC(c1ccc(F)cc1)c1ccc(F)cc1` (stereo not drawn) [CBK015830C], the figure is 104%; as for `CN(C(=O)c1cccnc1)C(CC1CCCCC1)C1CCCCC1` (stereo not drawn) [CBK015849], 99.1%; as for `Cn1c(C(N)=O)cc(=O)n1-c1ccc([N+](=O)[O-])cc1` [CBK015873], 101%.
With `CCOc1ccc(OCCC#N)cc1` [CBK015880], under “% viability”, the viability at 28.5 h, 10 µM came to 84.7%.
The same measure, in the same setting: then `C/C(=N\Nc1ccc(Cl)c(Cl)c1)c1cccnc1` [CBK015914C], with 93.3%; and `Clc1ccc(Cl)c(N/N=C(\c2ccccc2)c2cccnc2)c1` [CBK015932C], with 96.9%; and `Cc1nn(Cc2ccccc2)c(C)c1C(=O)N(C)C` [CBK015942], with 104%.
In the case of `CO[C@]1(c2ccc(Cl)cc2)CC[C@H](NCCCC(=O)c2ccc(F)cc2)CC1` [CBK015959C], for the setting “% viability”, the viability at 28.5 h, 10 µM came out at 90.2%.
In the case of `COc1ccccc1C1CCC(NCCCC(=O)c2ccc(F)cc2)CC1` (stereo not drawn) [CBK015965C], the viability at 28.5 h, 10 µM (% viability) was 105%.
